In general, IC50 refers to the concentration at which inhibition is half-maximal.

Values after ≈ are worked out from the molar mass of the structure shown.

What all share (format): cell-based
Assay [1] has as its system visna virus (strain K184). Description: CPE inhibition test (established monolayer), visna virus. The note with it: Visna-maedi virus; K184 strain in SCP cells; minimum concentration giving complete protection of the cell monolayers. The method, then: 4. CPE Inhibition Test (Established Monolayer) for Lentiviruses
3×10^4 sheep choroid plexus (SCP) cells were plated into individual wells of a 96 well microtitre plate in 100 μl of Eagle's MEM with Hanks salts containing 10% heat inactivated foetal calf serum (FCS). When monolayers had become established (after 1 or 2 days growth) they were washed with 200 μl of maintenance medium (Eagle's MEM with Hanks salts containing 0.5% FCS) and infected with 100μl of visna virus (strain K184) in maintenance medium (30 TCID50/ ml). Test samples were diluted with maintenance medium in further 96 well microtitre plates over the range 200-0.09 μg/ml by 3-fold dilution steps. 100 μl of the diluted samples was then transferred directly onto virus-infected monolayers (final concentration range therefore 100-0.045 μg/ml) and incubated at 37° C. in a humidified, 5% CO2 incubation until virus-induced CPE was maximal in the untreated virus-infected controls (usually 12-14 days). The plates were fixed with formal saline and stained with crystal violet.
Virus-induced CPE was then scored microscopically and the minimum concentration of sample giving complete protection of the cell monolayers (MIC) determined.

Assay [2] has as its system herpes simplex virus 1, strain SC16. Briefly: CPE inhibition test (replicating cells), herpes simplex virus 1 (strain SC16). The note with it: Human alphaherpesvirus 1, SC16, MRC5, SC16 strain in MRC-5 cells; each figure is a single test; read-out: IC50, Herpes Simplex Type 1 virus. The text has this: 3. CPE Inhibition Test (Replicating Cells) for Herpes Simplex Virus 1 MRC-5 cells (in Eagles MEM containing 5% newborn calf serum) were infected in suspension with herpes simplex virus 1, strain SC16 (approximately one infectious particle per 10 cells). One hundred microliters of the infected cell suspension (containing approximately 2× 10^4 cells) were dispensed into each well of a 96 well microtitre plate containing an equal volume of the test drug in medium (Eagles MEM containing 5% newborn calf serum) at concentrations ranging from 200 to 0.09 μg/ml (3-fold dilution steps); final concentrations therefore ranged between 100 to 0.045 μg/ml. The plates were then incubated at 37° C. in a humidified atmosphere of 5% CO2 for 3 days when the virus-induced cytopathic effect (CPE) in the control wells reached 100%. The plates were fixed in formal saline and stained with carbol fuchsin. […] Plates of uninfected cells were set up in parallel to determine the minimum concentration of test compound which caused cytotoxicity.

Assay [3] deals with herpes simplex virus 2 (HSV-2; strain MS). Briefly: Plaque reduction test, herpes simplex virus 2 (strain MS). The note with it: Human alphaherpesvirus 2, MRC5, MS strain in MRC-5 cells; each figure is a single test; read-out: IC50, Herpes Simplex Type 2 virus. On the procedure: Plaque Reduction Test for Heroes Simplex viruses 1 and 2. Cells (vero or MRC-5) were grown to confluence in 24 well multi-dishes (well diameter 1.5 cm). The drained cell monolayers were each infected with approximately 50 infectious particles of herpes simplex virus 1 (HSV-1; strain HFEM) or herpes simplex virus 2 (HSV-2; strain MS) in 100 μof phosphate-bufferedsaline. The virus was adsorbed for 1 hour at room temperature. After adsorption, residual inoculum was removed from each well and replaced with 0.5ml of Eagle's MEM containing 5% newborn calf serum and 0.9% agarose (A37). Once the agarose had set, dilutions of the test compound, which had been prepared in Eagle's MEM (containing 5% newborn calf serum), were added, each well receiving 0.5ml of liquid overlay. The test compound was diluted to give the following series of […] concentrations: 200, 60, 20, 6 . . . 0.06 μg/ml; final concentrations in the assay ranged, therefore, between 100 μg/ml and 0.03 μg/ml. […]
Cultures from 1 and 2 were fixed in formal saline, the agarose overlays were carefully washed off, and then the cell monolayers were stained with carbol fuchsin. […] In addition, the monolayers were examined for evidence of drug-induced cytotoxicity; the minimum concentration at which cytotoxicity occurs was recorded.

Consider `Nc1nc2c(ncn2OC(CO)CCO)c(=O)[nH]1` (stereo not shown) [Example 8, 9-(1,4-Dihydroxybut-2-oxy)guanine], for which, in assay [1], the MIC is 30 mg/L (≈ 118 µM).
On the same count and under the same terms, to `Nc1nc2c(ncn2OCC(CO)CO)c(=O)[nH]1` [Example 5, 9-(3-Hydroxy-2-hydroxymethylprop-1-oxy)guanine] belongs 0.1 mg/L (≈ 0.392 µM).
On the same count and under the same terms, in the case of `Nc1nc2c(ncn2OCCCO)c(=O)[nH]1` [Example 1, 9-(3-Hydroxyprop-1-oxy)guanine] it was 3 mg/L (≈ 13.3 µM); in that of `Nc1nc2c(ncn2OCC(O)CO)c(=O)[nH]1` (stereo not shown) [Example 6, 9-(2,3-Dihydroxyprop-1-oxy)guanine], 10 mg/L (≈ 41.5 µM).
For `Nc1nc2c(ncn2OC[C@@H](O)CO)c(=O)[nH]1` [Example 31, (S)-9-(2,3-Dihydroxyprop-1-oxy)guanine], the IC50 in assay [2] turned out to be 0.7 mg/L (≈ 2.9 µM); in assay [3], 0.06 mg/L (≈ 0.249 µM). In addition, the MIC in assay [1] came out at 10 mg/L (≈ 41.5 µM).

(Values after patent publication US4965270A, “Purine derivatives” (Beecham Group p.l.c., priority 1989, dated 1990).)
